Each compound was assayed against LRRK2 (Homo sapiens (Human), UniProt Q5S007, G2019S) (assay: In Vitro LRRK2 Assay (LRRK2 Ki)).
Format: biochemical
Experimental: In Vitro LRRK2 Lanthascreen Binding Assay
This assay was used to determine a compound's potency in inhibiting activity of LRRK2 by determining, Kiapp, IC50, or percent inhibition values.
Binding of the Alexa Fluor® “tracer” to a kinase is detected by addition of a Eu-labeled anti-GST antibody.
12 pt curve. […] Stamp 5 ul to assay plate. Final top test concentration 100 uM
In Reaction Buffer, 5 ul of DMSO (3%) was added to total and blank wells and 5 ul of Eu-labeled anti-GST antibody (6 nM) was added to blank wells. Add 5 ul LRRK2 (30 nM)/Eu-labeled anti-GST antibody (6 nM) mix to compound and total wells.
Incubate plates at room temperature for 1 hour on a plate shaker (gentle shaking). Read on Perkin Elmer EnVision reader HTRF protocol
Subtract mean background values from all data points. Calculate % of control for each test value. Plot % of control vs Compound concentration. Calculate Ki Value (xlfit curve fitting-Morrison equation). Results expressed as a Ki in μM. Equation for Ki: Y=V0*(1−((x+Ki*(1+S/Km)+Et)/(2*Et)−(((x+Ki*(1+S/Km)+Et)^2−(4*Et*x))^0.5)/(2*Et)))
This assay was used to determine a compound's potency in inhibiting activity of LRRK2 by determining, Kiapp, IC50, or percent inhibition values. In a polypropylene plate, LRRK2, fluorescently-labeled peptide substrate, ATP and test compound were incubated together. Using a LabChip 3000 (Caliper Life Sciences), after the reaction the substrate was separated by capillary electrophoresis into two populations: phosphorylated and unphosphorylated. The relative amounts of each were quantitated by fluorescence intensity. LRRK2 Ki was determined according to the equation: Y=V0*(1−((x+Ki*(1+S/Km)+Et)/(2*Et)−(((x+Ki*(1+S/Km)+Et)^2−(4*Et*x))^0.5)/(2*Et))).
Ki values in Table 4 and elsewhere herein are shown in μM.
For serial dilutions, 34.6 μl DMSO was added to columns 3-24.
In Complete Reaction Buffer, substrate was diluted to 4 μM. Equal volumes of Complete Reaction Buffer and 4 μM substrate were combined to obtain the blank. Equal volumes of Complete Reaction Buffer and 4 μM substrate were combined and to the combined solution was added 2× final LRRK2 concentration.
To a 50 μl polypropylene plate, 5 μl/well buffer/substrate was added by hand to Blank wells. A Biomek FX was used to start the kinase reaction (“PLK SAR 23 ATP”). The following were added to the appropriate wells:
The plate was incubated for 2 hours in the dark. Biomek FX was used to stop the kinase reaction (“PLK Stop”), and 10 μl/well Stop solution was added to the Assay Plate. Results were read on the LabChip 3000.
The LabChip 3000 was run using the job “LRRK2 IC50” with the following job settings: […]

Sequence of LRRK2 (Q5S007 whole entry G2019S): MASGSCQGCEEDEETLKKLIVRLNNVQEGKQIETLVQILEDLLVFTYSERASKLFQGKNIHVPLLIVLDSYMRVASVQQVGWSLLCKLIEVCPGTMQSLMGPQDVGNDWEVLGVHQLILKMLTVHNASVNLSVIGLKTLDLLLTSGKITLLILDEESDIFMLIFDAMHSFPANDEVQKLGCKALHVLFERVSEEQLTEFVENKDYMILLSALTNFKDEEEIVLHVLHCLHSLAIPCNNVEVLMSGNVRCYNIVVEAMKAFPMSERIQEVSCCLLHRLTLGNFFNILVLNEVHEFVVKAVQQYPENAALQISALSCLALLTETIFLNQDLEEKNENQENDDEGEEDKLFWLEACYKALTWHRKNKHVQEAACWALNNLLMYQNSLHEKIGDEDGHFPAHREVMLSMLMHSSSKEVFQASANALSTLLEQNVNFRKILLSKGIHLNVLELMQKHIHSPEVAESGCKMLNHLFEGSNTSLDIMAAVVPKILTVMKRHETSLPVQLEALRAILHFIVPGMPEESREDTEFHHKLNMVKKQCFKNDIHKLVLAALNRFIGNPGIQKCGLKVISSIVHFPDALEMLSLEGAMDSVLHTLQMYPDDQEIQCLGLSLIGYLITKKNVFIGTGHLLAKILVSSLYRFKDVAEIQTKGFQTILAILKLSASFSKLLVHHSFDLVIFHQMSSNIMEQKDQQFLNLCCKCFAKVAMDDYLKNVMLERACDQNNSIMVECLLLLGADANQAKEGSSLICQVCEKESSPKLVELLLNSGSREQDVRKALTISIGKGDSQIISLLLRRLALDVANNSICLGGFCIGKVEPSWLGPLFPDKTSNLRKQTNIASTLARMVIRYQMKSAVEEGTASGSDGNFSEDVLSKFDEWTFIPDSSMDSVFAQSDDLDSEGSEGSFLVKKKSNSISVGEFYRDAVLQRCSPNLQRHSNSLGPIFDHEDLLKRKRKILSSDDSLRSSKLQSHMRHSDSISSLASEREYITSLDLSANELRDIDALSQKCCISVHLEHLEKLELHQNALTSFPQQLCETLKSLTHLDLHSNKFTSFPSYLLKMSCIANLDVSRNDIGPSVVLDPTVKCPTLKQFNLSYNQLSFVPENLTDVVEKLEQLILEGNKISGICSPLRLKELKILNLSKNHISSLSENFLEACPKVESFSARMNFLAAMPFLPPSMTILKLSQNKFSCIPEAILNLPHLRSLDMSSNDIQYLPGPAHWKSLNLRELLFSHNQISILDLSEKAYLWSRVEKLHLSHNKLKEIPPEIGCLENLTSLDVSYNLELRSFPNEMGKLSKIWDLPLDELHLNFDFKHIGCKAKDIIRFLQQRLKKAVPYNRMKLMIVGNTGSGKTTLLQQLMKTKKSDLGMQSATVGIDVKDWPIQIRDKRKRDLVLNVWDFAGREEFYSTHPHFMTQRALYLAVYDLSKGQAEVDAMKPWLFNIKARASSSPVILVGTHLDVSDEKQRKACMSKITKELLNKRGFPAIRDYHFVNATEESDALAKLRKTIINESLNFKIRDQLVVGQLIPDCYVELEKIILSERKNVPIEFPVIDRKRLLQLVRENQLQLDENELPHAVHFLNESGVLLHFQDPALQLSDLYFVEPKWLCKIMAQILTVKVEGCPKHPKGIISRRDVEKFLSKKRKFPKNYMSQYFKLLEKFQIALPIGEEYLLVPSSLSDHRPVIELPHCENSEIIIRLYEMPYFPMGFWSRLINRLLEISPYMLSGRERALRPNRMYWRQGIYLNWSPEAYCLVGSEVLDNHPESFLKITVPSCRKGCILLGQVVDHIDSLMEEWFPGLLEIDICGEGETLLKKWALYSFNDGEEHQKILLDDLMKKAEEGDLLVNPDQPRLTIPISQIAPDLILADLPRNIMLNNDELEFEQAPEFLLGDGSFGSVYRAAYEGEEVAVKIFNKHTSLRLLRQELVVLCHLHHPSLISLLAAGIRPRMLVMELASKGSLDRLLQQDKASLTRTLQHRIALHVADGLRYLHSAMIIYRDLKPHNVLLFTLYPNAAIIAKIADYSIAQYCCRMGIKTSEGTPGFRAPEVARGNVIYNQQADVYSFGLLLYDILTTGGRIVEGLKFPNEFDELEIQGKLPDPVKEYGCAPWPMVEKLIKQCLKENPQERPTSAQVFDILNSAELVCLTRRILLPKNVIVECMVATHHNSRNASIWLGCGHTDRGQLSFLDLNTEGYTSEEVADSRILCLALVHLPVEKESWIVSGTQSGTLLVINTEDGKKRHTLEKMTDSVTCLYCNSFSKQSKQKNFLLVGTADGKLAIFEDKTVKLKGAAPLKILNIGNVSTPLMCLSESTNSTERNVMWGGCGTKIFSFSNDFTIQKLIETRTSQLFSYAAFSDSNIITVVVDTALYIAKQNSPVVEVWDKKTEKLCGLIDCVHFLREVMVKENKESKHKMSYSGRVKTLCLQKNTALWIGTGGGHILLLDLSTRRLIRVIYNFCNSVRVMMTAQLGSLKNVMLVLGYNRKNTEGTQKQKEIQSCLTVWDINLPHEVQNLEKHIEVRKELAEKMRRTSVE

SMILES	Ki
CNc1nc(Nc2cn(C3CCOC[C@H]3F)nc2C)ncc1C(F)(F)F (stereo in doubt) [Example 37, N2-(1-(3-fluorotetrahydro-2H-pyran-4-yl)-3-methyl-1H-pyrazol-4-yl)-N4-methyl-5-(trifluoromethyl)pyrimidine-2,4-diamine]	0.6 nM
CNc1nc(Nc2cnn(C3CCOC[C@H]3F)c2C)ncc1C(F)(F)F (stereo in doubt) [Example 39, N2-(1-(3-fluorotetrahydro-2H-pyran-4-yl)-5-methyl-1H-pyrazol-4-yl)-N4-methyl-5-(trifluoromethyl)pyrimidine-2,4-diamine]	2.8 nM
Cc1c(Nc2ncc(C#N)c(NC3CC3)n2)cnn1C1CCOCC1 [Example 3, 4-(cyclopropylamino)-2-((5-methyl-1-(tetrahydro-2H-pyran-4-yl)-1H-pyrazol-4-yl)amino)pyrimidine-5-carbonitrile]	7.3 nM
CCNc1nc(Nc2cnn(C3CCOCC3)c2Cl)ncc1C#N [Example 7, 2-((5-chloro-1-(tetrahydro-2H-pyran-4-yl)-1H-pyrazol-4-yl)amino)-4-(ethylamino)pyrimidine-5-carbonitrile]	6.2 nM
CNc1nc(Nc2cn(C(C)(C)CO)nc2C)ncc1C(F)(F)F [Example 9, 2-methyl-2-(3-methyl-4-((4-(methylamino)-5-(trifluoromethyl)pyrimidin-2-yl)amino)-1H-pyrazol-1-yl)propan-1-ol]	4.8 nM
CNc1nc(Nc2cnn(CC3(O)CC3)c2Cl)ncc1C(F)(F)F [Example 10, 1-((5-chloro-4-((4-(methylamino)-5-(trifluoromethyl)pyrimidin-2-yl)amino)-1H-pyrazol-1-yl)methyl)cyclopropanol]	5 nM
CNc1nc(Nc2cn(C3(C)COC3)nc2C)ncc1C(F)(F)F [Example 15, N4-methyl-N2-(3-methyl-1-(3-methyloxetan-3-yl)-1H-pyrazol-4-yl)-5-(trifluoromethyl)pyrimidine-2,4-diamine]	4.8 nM
CNc1nc(Nc2cn(C(C)(C)c3nc(C)cn3C)nc2C)ncc1C(F)(F)F [Example 16, N2-(1-(2-(1,4-dimethyl-1H-imidazol-2-yl)propan-2-yl)-3-methyl-1H-pyrazol-4-yl)-N4-methyl-5-(trifluoromethyl)pyrimidine-2,4-diamine]	140 nM
CNc1nc(Nc2cn(C(C)(C)c3ncc(C)o3)nc2C)ncc1C(F)(F)F [Example 18, N4-methyl-N2-(3-methyl-1-(2-(5-methyloxazol-2-yl)propan-2-yl)-1H-pyrazol-4-yl)-5-(trifluoromethyl)pyrimidine-2,4-diamine]	3.82 nM
CCNc1nc(Nc2cn(C3(C)COC3)nc2C)ncc1C(F)(F)F [Example 19, N4-ethyl-N2-(3-methyl-1-(3-methyloxetan-3-yl)-1H-pyrazol-4-yl)-5-(trifluoromethyl)pyrimidine-2,4-diamine]	0.975 nM
CCNc1nc(Nc2cn(S(=O)(=O)CCOC)nc2C)ncc1C(F)(F)F [Example 20, N4-ethyl-N2-(1-((2-methoxyethyl)sulfonyl)-3-methyl-1H-pyrazol-4-yl)-5-(trifluoromethyl)pyrimidine-2,4-diamine]	0.96 nM
CNc1nc(Nc2cn(S(=O)(=O)CCOC)nc2C)ncc1C(F)(F)F [Example 21, N2-(1-((2-methoxyethyl)sulfonyl)-3-methyl-1H-pyrazol-4-yl)-N4-methyl-5-(trifluoromethyl)pyrimidine-2,4-diamine]	1.85 nM
CNc1nc(Nc2cnn(S(=O)(=O)CCOC)c2C)ncc1C(F)(F)F [Example 22, N2-(1-((2-methoxyethyl)sulfonyl)-5-methyl-1H-pyrazol-4-yl)-N4-methyl-5-(trifluoromethyl)pyrimidine-2,4-diamine]	6.46 nM
CCNc1nc(Nc2cnn(C(C)(C)c3nncn3C)c2Cl)ncc1C(F)(F)F [Example 23, N2-(5-chloro-1-(2-(4-methyl-4H-1,2,4-triazol-3-yl)propan-2-yl)-1H-pyrazol-4-yl)-N4-ethyl-5-(trifluoromethyl)pyrimidine-2,4-diamine]	1.1 nM
CNc1nc(Nc2cnn(CC(C)c3ccn(C)n3)c2C)ncc1C(F)(F)F (stereo not shown) [Example 24, N4-methyl-N2-(5-methyl-1-(2-(1-methyl-1H-pyrazol-3-yl)propyl)-1H-pyrazol-4-yl)-5-(trifluoromethyl)pyrimidine-2,4-diamine]	16.6 nM
CNc1nc(Nc2cnn(CC(C)c3ccn(C)n3)c2C)ncc1C(F)(F)F (stereo not shown) [Example 25, N4-methyl-N2-(5-methyl-1-(2-(1-methyl-1H-pyrazol-3-yl)propyl)-1H-pyrazol-4-yl)-5-(trifluoromethyl)pyrimidine-2,4-diamine]	108 nM
CNc1nc(Nc2cn(C(C)(C)c3ncccn3)nc2C)ncc1C(F)(F)F [Example 26, N4-methyl-N2-(3-methyl-1-(2-(pyrimidin-2-yl)propan-2-yl)-1H-pyrazol-4-yl)-5-(trifluoromethyl)pyrimidine-2,4-diamine]	4.3 nM
CCNc1nc(Nc2cn(C(C)(C)c3nnc(C)o3)nc2Cl)ncc1C(F)(F)F [Example 27, N2-(3-chloro-1-(2-(5-methyl-1,3,4-oxadiazol-2-yl)propan-2-yl)-1H-pyrazol-4-yl)-N4-ethyl-5-(trifluoromethyl)pyrimidine-2,4-diamine]	3.7 nM
CCNc1nc(Nc2cn(C(C)(C)c3nnc(CC)o3)nc2C)ncc1C(F)(F)F [Example 29, N4-ethyl-N2-(1-(2-(5-ethyl-1,3,4-oxadiazol-2-yl)propan-2-yl)-3-methyl-1H-pyrazol-4-yl)-5-(trifluoromethyl)pyrimidine-2,4-diamine]	6.5 nM
CCNc1nc(Nc2cn(C(C)(C)c3ncn(C(C)C)n3)nc2C)ncc1C(F)(F)F [Example 30, N4-ethyl-N2-(1-(2-(1-isopropyl-1H-1,2,4-triazol-3-yl)propan-2-yl)-3-methyl-1H-pyrazol-4-yl)-5-(trifluoromethyl)pyrimidine-2,4-diamine]	0.6 nM
CCNc1nc(Nc2cn(C(C)(C)c3nncn3C)nc2Cl)ncc1C(F)(F)F [Example 31, N2-(3-chloro-1-(2-(4-methyl-4H-1,2,4-triazol-3-yl)propan-2-yl)-1H-pyrazol-4-yl)-N4-ethyl-5-(trifluoromethyl)pyrimidine-2,4-diamine]	42.5 nM
CCNc1nc(Nc2cn(C(C)(C)c3ncn(C)n3)nc2Cl)ncc1C(F)(F)F [Example 32, N2-(3-chloro-1-(2-(1-methyl-1H-1,2,4-triazol-3-yl)propan-2-yl)-1H-pyrazol-4-yl)-N4-ethyl-5-(trifluoromethyl)pyrimidine-2,4-diamine]	0.5 nM
CNc1nc(Nc2cnn(CCc3ccn(C)n3)c2C)ncc1C(F)(F)F [Example 33, N4-methyl-N2-(5-methyl-1-(2-(1-methyl-1H-pyrazol-3-yl)ethyl)-1H-pyrazol-4-yl)-5-(trifluoromethyl)pyrimidine-2,4-diamine]	2 nM
CNc1nc(Nc2cn(CCc3ccn(C)n3)nc2C)ncc1C(F)(F)F [Example 36, N4-methyl-N2-(3-methyl-1-(2-(1-methyl-1H-pyrazol-3-yl)ethyl)-1H-pyrazol-4-yl)-5-(trifluoromethyl)pyrimidine-2,4-diamine]	3.7 nM
CNc1nc(Nc2cnn(C3CCOC[C@@H]3F)c2C)ncc1C(F)(F)F (stereo partly drawn) [Example 40, N2-(1-((3R)-3-fluorotetrahydro-2H-pyran-4-yl)-5-methyl-1H-pyrazol-4-yl)-N4-methyl-5-(trifluoromethyl)pyrimidine-2,4-diamine]	0.6 nM
CNc1nc(Nc2cn(C(C)(C)CC#N)nc2C)ncc1C(F)(F)F [Example 41, 3-methyl-3-(3-methyl-4-((4-(methylamino)-5-(trifluoromethyl)pyrimidin-2-yl)amino)-1H-pyrazol-1-yl)butanenitrile]	12.8 nM
CCC(C#N)Cn1cc(Nc2ncc(C(F)(F)F)c(NC)n2)c(C)n1 (stereo not shown) [Example 42, 2-((3-methyl-4-((4-(methylamino)-5-(trifluoromethyl)pyrimidin-2-yl)amino)-1H-pyrazol-1-yl)methyl)butanenitrile]	4.1 nM
CCNc1nc(Nc2cc(C(C)(C)C#N)nn2C)ncc1C(F)(F)F [Example 44, 2-(5-((4-(ethylamino)-5-(trifluoromethyl)pyrimidin-2-yl)amino)-1-methyl-1H-pyrazol-3-yl)-2-methylpropanenitrile]	0.7 nM
